According to patent publication US6956053B2, “Pyrazole derivatives and their use as gastrin and cholecystokin receptor ligands” (The James Black Foundation Limited, priority 2000, dated 2005):

Target: T1, gastrin (CCK2) receptors (Rattus norvegicus, UniProt P30553)
T1 construct: The stomach was excised and flushed with ca. 1 ml of unbuffered physiological saline solution; from tissue; host or cells: isolated, lumen-perfused stomach of immature rats (33-50 g, ca. 21 days old)
T1 sequence (P30553 1-452): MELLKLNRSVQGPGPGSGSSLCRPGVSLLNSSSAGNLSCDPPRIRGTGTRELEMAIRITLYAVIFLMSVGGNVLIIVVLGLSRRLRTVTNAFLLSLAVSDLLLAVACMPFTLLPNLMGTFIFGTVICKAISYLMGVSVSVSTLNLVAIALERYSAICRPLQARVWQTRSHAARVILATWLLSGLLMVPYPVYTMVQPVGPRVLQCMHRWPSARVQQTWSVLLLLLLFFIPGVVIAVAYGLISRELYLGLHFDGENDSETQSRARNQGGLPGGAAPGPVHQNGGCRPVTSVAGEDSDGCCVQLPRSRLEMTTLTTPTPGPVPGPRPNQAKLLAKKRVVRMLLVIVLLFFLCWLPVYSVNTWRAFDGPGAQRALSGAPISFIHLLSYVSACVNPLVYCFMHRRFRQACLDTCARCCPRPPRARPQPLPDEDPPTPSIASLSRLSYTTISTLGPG
Test: immature rat stomach assay, gastrin (CCK2) antagonist activity against pentagastrin-stimulated acid secretion
Type: cell-based
Details: isolated immature rat stomach, pentagastrin dose-response curves, 60 min after drug addition; for Kb: read-out: Rat Stomach pKB (converted)
Experimental: The compounds of the examples were tested for gastrin (CCK2) antagonist activity in an immature rat stomach assay. The procedure was as follows:
The oesophagus of immature rats (33-50 g, ca. 21 days old) was ligated at the level of the cardiac sphincter and the duodenal sphincter was cannulated. The stomach was excised and flushed with ca. 1 ml of unbuffered physiological saline solution. The fundus was punctured and cannulated. A further 4-5 ml of unbuffered solution was flushed through the stomach to ensure the preparation was not leaking. The stomach was lowered into a jacketed organ bath containing 40 ml of buffered solution containing 3×10^−8 M 5-methylfurmethide, maintained at 37° and gassed vigorously with 95% O2/5% CO2. The stomach was continuously perfused at a rate of 1 ml min^−1 with unbuffered solution gassed with 100% O2 with the perfusate passing over an internally referenced pH-electrode fixed 12 cm above the stomach.
After 120 min of stabilisation the drugs were added directly to the serosal solution in the organ bath and after a further 60 min cumulative pentagastrin dose-response curves were started. Changes in acid secretion were monitored and the curves analysed according to Black et al., Br. J. Pharmacol., 1985, 86, 581.

Kb [nM] | Compound | Rat Stomach pKB
30.9 | O=C(O)c1cccc(NC(=O)c2c(COC34CC5CC(CC(C5)C3)C4)nn(C3CCCCC3)c2O)c1 [Example 4, 3-{[3-(Adamantan-1-yloxymethyl)-1-cyclohexyl-5-hydroxyl-1H-pyrazole-4-carbonyl]-amino}-benzoic acid] | –
19.1 | Cc1ccccc1-n1nc(COC23CC4CC(CC(C4)C2)C3)c(C(=O)Nc2cccc(C(=O)O)c2)c1O [Example 3, 3-{[3-(Adamantan-1-yloxymethyl)-5-hydroxy-1-o-tolyl-1H-pyrazole-4-carbonyl]-amino}-benzoic acid] | –

Further lines, the compound ahead of its results:

Compound | Kb [nM] | Rat Stomach pKB
COc1c(C(=O)Nc2cccc(C(=O)O)c2)c(COC23CC4CC(CC(C4)C2)C3)nn1C1CCCCC1 [Example 5, 3-{[3-(Adamantan-1-yloxymethyl)-1-cyclohexyl-5-methoxy-1H-pyrazole-4-carbonyl]-amino}-benzoic acid] | 170 | –
Cn1c(COC23CC4CC(CC(C4)C2)C3)c(C(=O)Nc2cccc(C(=O)O)c2)c(=O)n1C1CCCCC1 [Example 6, 3-{[5-(Adamantan-1-yloxymethyl)-2-cyclohexyl-1-methyl-3-oxo-2,3-dihydro-1H-pyrazole-4-carbonyl]-amino}-benzoic acid] | 269 | –
3-{[3-(Adamantan-1-yloxymethyl)-3-phenyl-1-o-tolyl-1H-pyrazole-4-carbonyl]-amino}-benzoic acid [Example 2] | – | 5.66 ± 0.24
